US10501452B2, “Lactam compound derivative and application thereof” (NHWA PHARMA. CORPORATION, priority 2015, dated 2019)
Where two headings read alike, the source gives them in different places.

Assays:
[1] = target: 5-HT1A (Rattus norvegicus (Rat), UniProt P19327); test: 5-HT1A receptor binding assay (3H-8-OH-DPAT); details: rat cortex membrane, 3H-8-OH-DPAT
Experimental: Rats were decapitated. […] Incubation at 37° C. was conducted for 10 min. […] Centrifugation was conducted and repeated 3 times.
(§1) Materials for the Receptor Binding Assay

[2] = target: 5-HT7 receptor (Rattus norvegicus (Rat), UniProt P32305); test: 5-HT7 receptor binding assay ([3H]-5-CT); details: rat hypothalamus membrane, [3H]-5-CT
Experimental: Adult SD rats were decapitated. […] Centrifugation was conducted (repeated 3 times).
as §1

[3] = target: Histamine H1 receptor (Cavia porcellus (Guinea pig), UniProt P31389); test: Histamine H1 receptor binding assay (3H-pyrilamine); details: guinea pig cerebellum membrane, 3H-pyrilamine
Experimental: Preparation of Histamine H1 Receptor Membrane
Guinea pigs were decapitated. […] Vortex mixer was used for blending. Centrifugation was conducted at 48000 g, 4° C. for 10 min. The supernatant was discarded to give pellets, and buffer was added again for washing. Centrifugation was conducted and repeated 3 times.
as §1
(2) 100 μL of membrane preparation was added into each reaction tube.

[4] = target: D2 (Rattus norvegicus (Rat), UniProt P61169); test: D2 receptor binding assay (3H-Spiperone)
Experimental: Rats were decapitated. Striatum of brain was rapidly taken on ice, 3 ml of buffer (0.05 M Tris-HCl buffer, containing NaCl 120 mM, KCl 5 mM, MgCl2 1 mM, CaCl2 1 mM) was added, homogenization was conducted, and then 5 ml of buffer was then added. The weight of the homogenized tubes were adjusted using a balance, and centrifugation was conducted. The supernatant was discarded, and 3 ml of buffer was added. Vortex mixer was used for blending, and then 5 ml of buffer was added. Centrifugation was conducted and repeated 3 times. The supernatant was discarded after centrifugation was completed, and the pellets were stored at −80° C. for future use.
Beckman LS-6500 Multi-function Liquid Scintillation Counter was used.
(1) The prepared membrane was applied with appropriate amount of buffer, and homogenizer was used for evenly dispersing. 15 tubes were mixed into a 100 ml container, and appropriate amount of buffer was added to give 50 ml of membrane suspension, which was reserved for future use.
(§2) (2) 100 μL of membrane preparation and 100 μL of buffer were added into each reaction tube.
(3) 100 μL of buffer was added into the total binding tube (TB), 100 μL of Butaclamol (final concentration 10^−5M) was added into the nonspecific binding tube (NB), 100 μL of the test compound (final concentration 10^−5M) was added into the specific binding tube (SB) of each test compound.
(5) Each of the reaction tubes was incubated at 37° C. for 20 min. After the reaction was completed, the bound ligands were rapidly filtered under reduced pressure, and sufficiently washed with ice-chilled assay buffer. The filter was taken out and put into a 3 ml scintillation vial, and 2 ml of toluene scintillation cocktail was added and blended.
(6) The scintillation vials were put into Liquid Scintillation Counter for counting. Inhibition rate(I%)=(Total binding tube cpm−compound cpm)/(Total binding tube cpm−nonspecific binding tube cpm)×100%
Each assay for the compounds was conducted in duplicate for two individual tests.

[5] = target: 5-HT2A (Rattus norvegicus (Rat), UniProt P14842); test: 5-HT2A receptor binding assay ([3H]-Ketanserin); details: read-out: Ki (nM) 5-HT2A; rat cortex membrane, [3H]-Ketanserin
Experimental: Rats were decapitated. Cortex of brain was rapidly taken on ice, and 3 ml of buffer (0.05 M Tris-HCl buffer: 6.05 g of Tris was dissolved in 1000 ml of double-distilled water, and concentrated HCl was used to adjust to pH 7.5) was added, homogenization was conducted, and then 5 ml of buffer was added. Incubation was conducted at 37° C. for 10 min, the weight of the tubes were adjusted using a balance after incubation. Centrifugation was conducted at 12000 rpm, 4° C. for 20 min, the supernatant was discarded, and 3 ml of buffer was added. Vortex mixer was used for blending, and then 5 ml of buffer was added. Centrifugation was conducted (repeated 3 times). After the centrifugation, the supernatant was discarded, and the pellets were stored at −80° C. for future use.
(1) The prepared membrane was applied with buffer, and homogenizer was used for evenly dispersing. 15 tubes were mixed into a 100 ml container, and appropriate amount of buffer was added to give 50 ml of membrane suspension, which was reserved for future use.
as §2
(3) 100 μL of buffer was added into the total binding tube (TB), 100 μL of Methysergide (final concentration 10^−5M) was added into the nonspecific binding tube (NB), 100 μL of the test compound (final concentration 10^−5M) was added into the specific binding tube (SB) of each test compound.
(5) Each of the reaction tubes was incubated at 37° C. for 15 min. After the reaction was completed, the bound ligands were rapidly filtered under reduced pressure, and sufficiently washed with ice-chilled assay buffer. The filter was taken out and put into a 3 ml scintillation vial, and 2 ml of toluene scintillation cocktail was added and blended.
(6) The scintillation vial were put into Liquid Scintillation Counter for counting. Inhibition rate(I%)=(Total binding tube cpm−compound cpm)/(Total binding tube cpm−nonspecific binding tube cpm)×100%

[6] = read-out: Ki (nM) D2, rat striatum membrane, 3H-Spiperone

D2, sequence (P61169 whole entry): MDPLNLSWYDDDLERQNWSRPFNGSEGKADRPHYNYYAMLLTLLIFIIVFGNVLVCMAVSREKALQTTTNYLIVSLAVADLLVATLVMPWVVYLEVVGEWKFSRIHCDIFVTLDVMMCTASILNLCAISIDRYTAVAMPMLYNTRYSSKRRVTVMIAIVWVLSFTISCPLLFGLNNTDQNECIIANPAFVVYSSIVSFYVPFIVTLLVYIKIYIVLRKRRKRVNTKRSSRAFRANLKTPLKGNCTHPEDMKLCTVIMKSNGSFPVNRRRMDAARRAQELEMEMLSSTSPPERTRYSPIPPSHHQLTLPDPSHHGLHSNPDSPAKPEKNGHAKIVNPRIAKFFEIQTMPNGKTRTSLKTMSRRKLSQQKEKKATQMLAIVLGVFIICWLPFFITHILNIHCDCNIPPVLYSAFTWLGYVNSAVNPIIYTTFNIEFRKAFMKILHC
5-HT7 receptor, sequence (P32305 whole entry): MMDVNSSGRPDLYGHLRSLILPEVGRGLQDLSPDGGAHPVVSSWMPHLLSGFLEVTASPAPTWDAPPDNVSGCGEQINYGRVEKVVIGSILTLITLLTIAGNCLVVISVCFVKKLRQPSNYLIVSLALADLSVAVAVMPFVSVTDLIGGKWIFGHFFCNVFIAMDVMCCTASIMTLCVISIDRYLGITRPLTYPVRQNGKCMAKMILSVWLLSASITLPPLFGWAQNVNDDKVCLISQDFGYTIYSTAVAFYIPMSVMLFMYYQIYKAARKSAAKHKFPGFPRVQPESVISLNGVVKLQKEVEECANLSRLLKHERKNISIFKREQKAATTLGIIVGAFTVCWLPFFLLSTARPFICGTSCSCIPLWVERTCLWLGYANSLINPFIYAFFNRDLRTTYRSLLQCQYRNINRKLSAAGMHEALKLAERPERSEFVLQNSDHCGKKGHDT
5-HT1A, sequence (P19327 whole entry): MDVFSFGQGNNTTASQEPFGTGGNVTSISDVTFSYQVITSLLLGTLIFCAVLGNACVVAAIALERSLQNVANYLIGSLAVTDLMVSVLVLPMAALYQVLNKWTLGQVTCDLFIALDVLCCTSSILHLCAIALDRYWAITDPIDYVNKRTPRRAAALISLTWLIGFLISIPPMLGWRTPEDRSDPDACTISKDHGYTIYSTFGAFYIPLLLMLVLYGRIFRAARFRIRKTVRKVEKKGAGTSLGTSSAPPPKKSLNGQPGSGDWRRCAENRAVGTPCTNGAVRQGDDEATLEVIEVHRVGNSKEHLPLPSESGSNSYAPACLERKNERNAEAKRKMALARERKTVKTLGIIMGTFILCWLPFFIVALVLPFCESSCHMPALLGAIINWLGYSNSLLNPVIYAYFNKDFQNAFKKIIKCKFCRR
Histamine H1 receptor, sequence (P31389 whole entry): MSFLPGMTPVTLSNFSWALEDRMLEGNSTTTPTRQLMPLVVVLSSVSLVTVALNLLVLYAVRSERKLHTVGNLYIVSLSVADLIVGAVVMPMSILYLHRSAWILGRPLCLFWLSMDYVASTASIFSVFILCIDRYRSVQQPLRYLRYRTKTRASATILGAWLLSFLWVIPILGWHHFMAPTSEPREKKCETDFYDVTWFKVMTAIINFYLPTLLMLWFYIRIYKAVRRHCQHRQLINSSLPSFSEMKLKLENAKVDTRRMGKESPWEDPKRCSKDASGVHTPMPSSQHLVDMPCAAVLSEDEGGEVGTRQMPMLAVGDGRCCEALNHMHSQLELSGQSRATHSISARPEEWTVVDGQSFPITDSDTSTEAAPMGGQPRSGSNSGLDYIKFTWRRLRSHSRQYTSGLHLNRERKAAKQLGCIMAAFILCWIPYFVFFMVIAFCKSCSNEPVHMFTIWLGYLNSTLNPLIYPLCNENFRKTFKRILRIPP
5-HT2A, sequence (P14842 whole entry): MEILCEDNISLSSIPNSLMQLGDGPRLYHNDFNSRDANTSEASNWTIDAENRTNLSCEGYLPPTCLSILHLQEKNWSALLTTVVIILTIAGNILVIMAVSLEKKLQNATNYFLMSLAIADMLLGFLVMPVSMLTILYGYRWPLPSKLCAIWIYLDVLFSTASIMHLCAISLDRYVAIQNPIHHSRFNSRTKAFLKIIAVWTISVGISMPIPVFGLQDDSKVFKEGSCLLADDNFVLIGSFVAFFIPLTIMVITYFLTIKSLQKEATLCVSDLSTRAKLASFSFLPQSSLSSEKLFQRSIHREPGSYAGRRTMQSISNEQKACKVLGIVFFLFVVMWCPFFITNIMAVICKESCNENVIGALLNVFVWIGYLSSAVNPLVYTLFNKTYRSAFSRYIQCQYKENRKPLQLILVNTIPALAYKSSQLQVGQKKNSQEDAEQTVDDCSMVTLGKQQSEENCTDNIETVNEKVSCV

SMILES: O=C1NCCc2ccc(OCCCN3CCN(c4cccc(Cl)c4Cl)CC3)cc21 [A, reference compound]
- Ki [1]: 14.3 nM
- Ki [2]: 254 nM
- Ki [3]: 89.6 nM
- Ki [4, 6]: 21.2 nM
- Ki [5]: 29.2 nM

SMILES: CN1CCc2ccc(OCCCN3CCN(c4cccc5sccc45)CC3)cc2C1=O [B, reference compound]
- Ki [2]: 579 nM
- Ki [3]: 139 nM

SMILES: O=C1NCCc2ccc(OCCCN3CCN(c4ccc5sccc5c4)CC3)cc21 [C, reference compound]
- Ki [2]: 500 nM
- Ki [3]: 138 nM
- Ki [4]: 35.2 nM

SMILES: CN1CCc2ccc(OCCCCN3CCC(c4noc5cc(F)ccc45)CC3)cc2C1=O [Compound 1, 7-(4-(4-(6-fluorobenzo[d]isoxazol-3-yl)piperidin-1-yl)butoxy)-2-methyl-3,4-dihydroisoquinolin-1(2H)-one]
- Ki [1]: 15.8 nM
- Ki [2]: 12.5 nM
- Ki [4, 6]: 12.5 nM
- Ki [5]: 18.9 nM

SMILES: CN1CCc2ccc(OCCCCN3CCN(c4cccc(C(F)(F)F)c4)CC3)cc2C1=O [Compound 3, 2-methyl-7-(4-(4-(3-(trifluoromethyl)phenyl)piperazin-1-yl)butoxy)-3,4-dihydroisoquinolin-1 (2H)-one]
- Ki [1]: 11.8 nM
- Ki [2]: 23.6 nM
- Ki [4, 6]: 17.2 nM
- Ki [5]: 9.9 nM

SMILES: CN1CCc2ccc(OCC(O)CN3CCC(c4noc5cc(F)ccc45)CC3)cc2C1=O (centres unmarked) [Compound 4, 7-(3-(4-(6-fluorobenzo[d]isoxazol-3-yl)piperidin-1-yl)-2-hydroxypropoxy)-2-methyl-3,4-dihydroisoquinolin-1(2H)-one]
- Ki [1]: 3.9 nM
- Ki [2]: 10.2 nM
- Ki [3]: > 2000 nM
- Ki [4, 6]: 15.1 nM
- Ki [5]: 15.9 nM

SMILES: CCN1CCc2ccc(OCCCN3CCC(c4noc5cc(F)ccc45)CC3)cc2C1=O [Compound 7, 7-(3-(4-(6-fluorobenzo[d]isoxazol-3-yl)piperidin-1-yl)propoxy)-2-ethyl-3,4-dihydroisoquinolin-1(2H)-one]
- Ki [1]: 1.9 nM
- Ki [2]: 12.7 nM
- Ki [3]: > 2000 nM
- Ki [4, 6]: 13.1 nM
- Ki [5]: 0.9 nM

SMILES: Cc1cc(OCCCN2CCC(c3noc4cc(F)ccc34)CC2)cc2c1CCN(C)C2=O [Compound 8, 7-(3-(4-(6-fluorobenzo[d]isoxazol-3-yl)piperidin-1-yl)propoxy)-2,5-dimethyl-3,4-dihydroisoquinolin-1(2H)-one]
- Ki [1]: 2.8 nM
- Ki [2]: 6.7 nM
- Ki [3]: > 2000 nM
- Ki [4, 6]: 8.7 nM
- Ki [5]: 2.4 nM

SMILES: CN1CCc2c(F)cc(OCCCN3CCC(c4noc5cc(F)ccc45)CC3)cc2C1=O [Compound 9, 5-fluoro-7-(3-(4-(6-fluorobenzo[d]isoxazol-3-yl)piperidin-1-yl)propoxy)-2-methyl-3,4-dihydroisoquinolin-1(2H)-one]
- Ki [1]: 3.9 nM
- Ki [2]: 7.9 nM
- Ki [3]: > 2000 nM
- Ki [4, 6]: 3.1 nM
- Ki [5]: 3.7 nM

SMILES: CC1CN(C)C(=O)c2cc(OCCCN3CCC(c4noc5cc(F)ccc45)CC3)ccc21 (centres unmarked) [Compound 10, 7-(3-(4-(6-fluorobenzo[d]isoxazol-3-yl)piperidin-1-yl)propoxy)-2,4-dimethyl-3,4-dihydroisoquinolin-1(2H)-one]
- Ki [1]: 4.6 nM
- Ki [2]: 8.4 nM
- Ki [3]: > 2000 nM
- Ki [4, 6]: 5.8 nM
- Ki [5]: 12.9 nM

SMILES: CN1COc2ccc(OCCCN3CCC(c4noc5cc(F)ccc45)CC3)cc2C1=O [Compound 11, 6-(3-(4-(6-fluorobenzo[d]isoxazol-3-yl)piperidin-1-yl)propoxy)-3-methyl-2H-benzo[e][1,3]oxazin-4(3H)-one]
- Ki [1]: 24.6 nM
- Ki [2]: 11.2 nM
- Ki [3]: > 2000 nM
- Ki [4, 6]: 13.9 nM
- Ki [5]: 3.6 nM

SMILES: O=C1NCCc2ccc(OCCCN3CCC(c4noc5cc(F)ccc45)CC3)cc21 [Compound 12, 7-(3-(4-(6-fluorobenzo[d]isoxazol-3-yl)piperidin-1-yl)propoxy)-3,4-dihydroisoquinolin-1(2H)-one]
- Ki [1]: 19.3 nM
- Ki [2]: 8.9 nM
- Ki [3]: > 2000 nM
- Ki [4, 6]: 10.4 nM
- Ki [5]: 5.5 nM

SMILES: Cn1c(=O)c2cc(OCCCN3CCN(c4cccc5sccc45)CC3)ccc2n(C)c1=O [D, reference compound]
- Ki [2]: 606 nM
- Ki [3]: 154 nM
- Ki [4, 6]: 25.5 nM
